In patent US12404241B2 (Celgene Corporation, priority 2018, dated 2025):
Counter-ions that a name gives are not always drawn.

Target: T1, AR (Homo sapiens, UniProt P10275)
T1 construct: endogenous in cells; host or cells: VCaP cells
T1 sequence (P10275 1-920): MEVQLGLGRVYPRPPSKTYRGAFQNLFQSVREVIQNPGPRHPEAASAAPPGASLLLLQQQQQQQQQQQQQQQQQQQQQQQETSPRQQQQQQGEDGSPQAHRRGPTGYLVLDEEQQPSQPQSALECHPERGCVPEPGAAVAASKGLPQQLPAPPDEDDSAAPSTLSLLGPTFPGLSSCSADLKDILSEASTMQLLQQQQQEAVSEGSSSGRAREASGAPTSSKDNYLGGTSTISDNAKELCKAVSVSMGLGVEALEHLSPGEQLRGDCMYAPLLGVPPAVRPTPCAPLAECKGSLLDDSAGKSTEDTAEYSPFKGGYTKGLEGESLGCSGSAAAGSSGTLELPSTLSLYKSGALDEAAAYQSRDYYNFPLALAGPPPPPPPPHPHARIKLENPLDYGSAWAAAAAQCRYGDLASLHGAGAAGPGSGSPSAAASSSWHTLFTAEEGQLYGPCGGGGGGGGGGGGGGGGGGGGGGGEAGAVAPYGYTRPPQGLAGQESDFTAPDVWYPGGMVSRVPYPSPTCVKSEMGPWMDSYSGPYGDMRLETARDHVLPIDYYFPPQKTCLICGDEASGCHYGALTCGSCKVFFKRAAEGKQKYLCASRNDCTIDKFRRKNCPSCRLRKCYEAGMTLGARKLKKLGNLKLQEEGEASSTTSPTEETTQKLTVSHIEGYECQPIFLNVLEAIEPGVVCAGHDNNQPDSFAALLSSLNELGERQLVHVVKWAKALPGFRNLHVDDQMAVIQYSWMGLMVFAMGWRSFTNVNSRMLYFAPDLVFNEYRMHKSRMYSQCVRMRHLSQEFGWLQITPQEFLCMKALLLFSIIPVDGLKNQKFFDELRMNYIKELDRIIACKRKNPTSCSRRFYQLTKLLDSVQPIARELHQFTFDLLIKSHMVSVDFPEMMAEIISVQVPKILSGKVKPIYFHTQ
Test: VCAP AR Degradation Assay
Type: cell-based
Conditions: for Y (AR degradation efficiency, % of DMSO control): class symbols *; for DC50: class symbols A-C, read-out: DC50
In short: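 24 h, 37 °C, VCaP (DMEM/8% FBS), 10-pt 1:3 dilutions from 5 μM final top, 0.1% DMSO ctrl. Lysis on ice/4 °C 1 h; total AR by sandwich ELISA, normalized to DMSO. 4PL fit → DC50, EC50, Y (min AR level).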

Row | SMILES | Y (AR degradation efficiency, % of DMSO control) | DC50 [nM]
1 | CC1(C)C(=O)N(c2ccc(C#N)c(C(F)(F)F)c2)C(=S)N1c1ccc(OCCN2CC3CCC(C2)N3CC(=O)Nc2cccc(NC3CCC(=O)NC3=O)c2)c(C2CC2)c1 (centres unmarked) [Example 238, 2-(3-(2-(4-(3-(4-cyano-3-(trifluoromethyl)phenyl)-5,5-dimethyl-4-oxo-2-thioxoimidazolidin-1-yl)-2-cyclopropylphenoxy)ethyl)-3,8-diazabicyclo[3.2.1]octan-8-yl)-N-(3-(2,6-dioxopiperidin-3-ylamino)phenyl)acetamide] | * (0<Y<=25%) | 500 to 1000
2 | C[C@H](C(=O)Nc1cccc(NC2CCC(=O)NC2=O)c1)N1CCN(CCOc2ccc(N3C(=S)N(c4ccc(C#N)c(C(F)(F)F)c4)C(=O)C3(C)C)cc2Cl)CC1 (some centres unmarked) [Example 25, hydrochloride] | *** (35%<Y<50%) | < 100
3 | CCc1cc(N2C(=S)N(c3cnc(C#N)c(C(F)(F)F)c3)C(=O)C2(C)C)ccc1OCCN1CCN(CC(=O)Nc2cc(Cl)cc(NC3CCC(=O)NC3=O)c2)C(C)(C)C1 (centres unmarked) [Example 78, N-(3-chloro-5-(2,6-dioxopiperidin-3-ylamino)phenyl)-2-(4-(2-(4-(3-(6-cyano-5-(trifluoromethyl)pyridin-3-yl)-5,5-dimethyl-4-oxo-2-thioxoimidazolidin-1-yl)-2-ethylphenoxy)ethyl)-2,2-dimethylpiperazin-1-yl)acetamide] | * (0<Y<=25%) | < 100
4 | Cc1cc(OCCN2C[C@@H](C)N(CC(=O)Nc3cccc(NC4CCC(=O)NC4=O)c3)[C@@H](C)C2)c(C(C)C)cc1N1C(=S)N(c2ccc(C#N)c(C(F)(F)F)c2)C(=O)C1(C)C (stereo partly drawn) [Example 253, 2-((2S,6R)-4-(2-(4-(3-(4-cyano-3-(trifluoromethyl)phenyl)-5,5-dimethyl-4-oxo-2-thioxoimidazolidin-1-yl)-2-isopropyl-5-methylphenoxy)ethyl)-2,6-dimethylpiperazin-1-yl)-N-(3-(2,6-dioxopiperidin-3-ylamino)phenyl)acetamide] | * (0<Y<=25%) | 100 to 500
5 | C[C@@H]1CN(CC(=O)Nc2cccc(NC3CCC(=O)NC3=O)c2)[C@H](C)CN1CCOc1ccc(N2C(=S)N(c3cnc(C#N)c(C(F)(F)F)c3)C(=O)C2(C)C)cc1C1CC1 (stereo partly drawn) [Example 234, 2-((2R,5R)-4-(2-(4-(3-(6-cyano-5-(trifluoromethyl)pyridin-3-yl)-5,5-dimethyl-4-oxo-2-thioxoimidazolidin-1-yl)-2-cyclopropylphenoxy)ethyl)-2,5-dimethylpiperazin-1-yl)-N-(3-(2,6-dioxopiperidin-3-ylamino)phenyl)acetamide] | * (0<Y<=25%) | < 100
6 | C[C@@H]1CN(CCOc2ccc(N3C(=S)N(c4ccc(C#N)c(Cl)c4)C(=O)C3(C)C)cc2C2CC2)C[C@H](C)N1CC(=O)Nc1cccc(NC2CCC(=O)NC2=O)c1 (stereo partly drawn) [Example 206, 2-((2S,6R)-4-(2-(4-(3-(3-chloro-4-cyanophenyl)-5,5-dimethyl-4-oxo-2-thioxoimidazolidin-1-yl)-2-cyclopropylphenoxy)ethyl)-2,6-dimethylpiperazin-1-yl)-N-(3-(2,6-dioxopiperidin-3-ylamino)phenyl)acetamide] | * (0<Y<=25%) | < 100
7 | C[C@@H]1CN(CC(=O)Nc2cccc(NC3CCC(=O)NC3=O)c2)[C@H](C)CN1CCOc1ccc(N2C(=S)N(c3cnc(C#N)c(C(F)(F)F)c3)C(=O)C2(C)C)cc1C(C)(F)F (stereo partly drawn) [Example 244, 2-((2R,5R)-4-(2-(4-(3-(6-cyano-5-(trifluoromethyl)pyridin-3-yl)-5,5-dimethyl-4-oxo-2-thioxoimidazolidin-1-yl)-2-(1,1-difluoroethyl)phenoxy)ethyl)-2,5-dimethylpiperazin-1-yl)-N-(3-(2,6-dioxopiperidin-3-ylamino)phenyl)acetamide] | * (0<Y<=25%) | < 100
8 | CCc1cc(N2C(=S)N(c3cnc(C#N)c(C(F)(F)F)c3)C(=O)C2(C)C)ccc1OCCN1CCN(CC(=O)Nc2cc(Cl)cc(NC3CCC(=O)NC3=O)c2)C2(CC2)C1 (centres unmarked) [Example 102, N-(3-chloro-5-(2,6-dioxopiperidin-3-ylamino)phenyl)-2-(7-(2-(4-(3-(6-cyano-5-(trifluoromethyl)pyridin-3-yl)-5,5-dimethyl-4-oxo-2-thioxoimidazolidin-1-yl)-2-ethylphenoxy)ethyl)-4,7-diazaspiro[2.5]octan-4-yl)acetamide] | * (0<Y<=25%) | < 100
9 | CC(C)c1cc(N2C(=S)N(c3ccc(C#N)c(C(F)(F)F)c3)C(=O)C2(C)C)ccc1OCCN1CCN(CC(=O)Nc2cccc(NC3CCC(=O)NC3=O)c2)CC1 (centres unmarked) [Example 17, hydrochloride] | * (0<Y<=25%) | < 100
10 | CC1(C)C(=O)N(c2cnc(C#N)c(C(F)(F)F)c2)C(=S)N1c1ccc(OCCN2CCN(CC(=O)Nc3cc(Cl)cc(NC4CCC(=O)NC4=O)c3)CC2)c(C2CC2)c1 (centres unmarked) [Example 84, N-(3-chloro-5-(2,6-dioxopiperidin-3-ylamino)phenyl)-2-(4-(2-(4-(3-(6-cyano-5-(trifluoromethyl)pyridin-3-yl)-5,5-dimethyl-4-oxo-2-thioxoimidazolidin-1-yl)-2-cyclopropylphenoxy)ethyl)piperazin-1-yl)acetamide] | * (0<Y<=25%) | < 100
11 | CCc1cc(N2C(=S)N(c3cnc(C#N)c(C(F)(F)F)c3)C(=O)C23CCC3)ccc1OCCN1C[C@@H]2CC[C@H]1CN2CC(=O)Nc1cccc(NC2CCC(=O)NC2=O)c1 (stereo partly drawn) [Example 172, 2-((1S,4S)-5-(2-(4-(7-(6-cyano-5-(trifluoromethyl)pyridin-3-yl)-8-oxo-6-thioxo-5,7-diazaspiro[3.4]octan-5-yl)-2-ethylphenoxy)ethyl)-2,5-diazabicyclo[2.2.2]octan-2-yl)-N-(3-(2,6-dioxopiperidin-3-ylamino)phenyl)acetamide] | *** (35%<Y<50%) | 100 to 500
12 | CCc1cc(N2C(=S)N(c3ccc(C#N)c(C(F)(F)F)c3)C(=O)C2(C)C)ccc1OCCN1CCN(C2(C(=O)Nc3cccc(NC4CCC(=O)NC4=O)c3)CC2)CC1 (centres unmarked) [Example 139, 1-(4-(2-(4-(3-(4-cyano-3-(trifluoromethyl)phenyl)-5,5-dimethyl-4-oxo-2-thioxoimidazolidin-1-yl)-2-ethylphenoxy)ethyl)piperazin-1-yl)-N-(3-(2,6-dioxopiperidin-3-ylamino)phenyl)cyclopropanecarboxamide] | * (0<Y<=25%) | < 100
13 | CCc1cc(N2C(=S)N(c3ccc(C#N)c(C(F)(F)F)c3)C(=O)C2(C)C)ccc1OCCN1CCN(CC(=O)Nc2cccc(NC3CCC(=O)NC3=O)c2)C2(CC2)C1 (centres unmarked) [Example 98, 2-(7-(2-(4-(3-(4-cyano-3-(trifluoromethyl)phenyl)-5,5-dimethyl-4-oxo-2-thioxoimidazolidin-1-yl)-2-ethylphenoxy)ethyl)-4,7-diazaspiro[2.5]octan-4-yl)-N-(3-(2,6-dioxopiperidin-3-ylamino)phenyl)acetamide] | ** (25%<Y<=35%) | < 100
14 | CCc1cc(N2C(=S)N(c3ccc(C#N)c(C(F)(F)F)c3)C(=O)C2(C)C)ccc1OCCN1C[C@@H](C)N(CC(=O)Nc2cccc(NC3CCC(=O)NC3=O)c2)C[C@@H]1C (stereo partly drawn) [Example 121, 2-((2R,5S)-4-(2-(4-(3-(4-cyano-3-(trifluoromethyl)phenyl)-5,5-dimethyl-4-oxo-2-thioxoimidazolidin-1-yl)-2-ethylphenoxy)ethyl)-2,5-dimethylpiperazin-l-yl)-N-(3-(2,6-dioxopiperidin-3-ylamino)phenyl)acetamide] | * (0<Y<=25%) | < 100
15 | CC1(C)C(=O)N(c2ccc(C#N)c(C(F)(F)F)c2)C(=S)N1c1ccc(OCCN2CCN(CC(=O)Nc3cccc(NC4CCC(=O)NC4=O)c3)CC2)c(Cl)c1 (centres unmarked) [Example 3, hydrochloride] | * (0<Y<=25%) | < 100
16 | CCc1cc(N2C(=S)N(c3ccc(C#N)c(C(F)(F)F)c3)C(=O)C2(C)C)ccc1OCCN1CCN(CC(=O)Nc2cc(Cl)cc(NC3CCC(=O)NC3=O)c2)[C@H](C)C1 (stereo partly drawn) [Example 87, N-(3-chloro-5-(2,6-dioxopiperidin-3-ylamino)phenyl)-2-((R)-4-(2-(4-(3-(4-cyano-3-(trifluoromethyl)phenyl)-5,5-dimethyl-4-oxo-2-thioxoimidazolidin-1-yl)-2-ethylphenoxy)ethyl)-2-methylpiperazin-1-yl)acetamide] | * (0<Y<=25%) | < 100
